Experimental data taken from patent publication US8722013B2, “Use of R(+)-alpha-lipoic acid for cryptogenic neuropathy” (Encrypta GmbH, priority 2007, dated 2014).
Where a name gives a salt, the structure may show the parent alone.

Key:
diabetic polyneuropathy = settings: cited from earlier work
uremic neuropathy = settings: cited from earlier work
cryptogenic neuropathy [1] = assay: Case reports: patients with cryptogenic neuropathy treated with R-LA; type: in vivo, human
Method: A patient with cryptogenic neuropathy was treated with an agent according to the present invention. For that purpose a daily oral dose of 50 mg of R-LA (s.d.) was given over a time period of 8 weeks in a customary multivitamin presentation form. The disease is presented by a loss of sensory perception in the feet and a severe impairment of perspiration.
A patient with cryptogenic neuropathy was treated with an agent according to the present invention. For that purpose a daily oral dose of 50 mg of R-LA (s.d.) was given over a time period of 12 weeks.
A patient with cryptogenic neuropathy was treated with an agent according to the present invention. For that purpose 50 mg of R-LA (s.d.) in an oral multivitamin preparation together with γ-linolenic acid was given. The administration was at first 2 times a day for 6 weeks and then 1 time a day. The lost sensation in the tips of the fingers and toes (Semmes Weinstein monofilament) recovered after 4 weeks.
A patient with cryptogenic neuropathy was treated with an agent according to the present invention. For that purpose a daily oral dose of 100 mg of R-LA as Na salt was given over a time period of 8 weeks. The incontinence and also the control over the bladder were improved after 3 weeks.
A patient with cryptogenic neuropathy was treated with an agent according to the present invention. For that purpose at first a dose of 300 mg of R-LA (Na salt) was given 1 time a day over a time period of 2 weeks and then a dose of 100 mg was given 1 time a day over a time period of 6 weeks. Due to inconsequent taking of the dose on average the agent was only administered every second day. The dryness of the eyes has not changed during the first 3 weeks, but after 4 weeks the use of eye drops was reduced.
A patient with cryptogenic neuropathy was treated with an agent according to the present invention. For that purpose at first a daily oral dose of 100 mg of R-LA was given over a time period of one week and then a reduction to a dose of 50 mg for 6 weeks with continuous co-medication of gabapentin followed.
A patient with cryptogenic neuropathy was treated with an agent according to the present invention. For that purpose at first a daily oral dose of 100 mg of R-LA was given over a time period of two weeks. Then a reduction to a dose of 50 mg followed which was continued over 3 weeks. Subsequently the treatment was continued with the administration of 25 mg over further 3 weeks. […] Sharp pain which occurred occasionally was unchanged.
A patient with cryptogenic neuropathy was treated with an agent according to the present invention. For that purpose at first a daily oral dose of 100 mg of R-LA was given over a time period of four weeks. Then an anti-oxidative multivitamin preparation together with 50 mg of R-LA was given over 4 weeks.
A patient with cryptogenic neuropathy was treated with an agent according to the present invention. For that purpose at first a daily oral dose of 50 mg of R-LA was given over a time period of six weeks. Then an anti-oxidative multivitamin preparation without R-LA was given orally over 4 weeks. The patient suffered from numbness and the loss of sensory perception in the lower limbs. Due to a possible immunologic background ibuprofen was given as a long-term medication. […] The heart pains during stair climbing disappeared.
A patient with cryptogenic neuropathy was treated with an agent according to the present invention. For that purpose a daily dose of 300 mg of R-LA was given over a time period of four weeks together with a continued administration of a vitamin B-combination medication. […] Stomach pain and feeling of abdominal fullness were improved at the end of that period.
A patient with cryptogenic neuropathy was treated with an agent according to the present invention. For that purpose a daily oral dose of 400 mg of R-LA (K salt) was given over a time period of one week. […] 3 months later a formulation of 100 mg (Na salt) was given. […]

cryptogenic neuropathy [2] = settings: in vivo; cited from earlier work
[3] = Example 11, 400 mg daily oral (K salt) over one week
[4] = Example 1, 50 mg daily oral (s.d.) in multivitamin presentation form, after 8 weeks
[5] = Example 9, 50 mg daily oral over six weeks, ibuprofen long-term medication

SMILES: O=C(O)CCCCC1CCSS1 (racemic) [rac-LA, 5-(1,2-dithiolan-3-yl)valeric acid]
- efficacy in controlled clinical trials (diabetic polyneuropathy; human, in vivo): negative
- efficacy in first short-time pilot study (ALADIN Study) (diabetic polyneuropathy; i.v. treatment, 3-week multicentre randomized controlled trial): verified the historic impressions of the efficacy
- neuropathic deficits (diabetic polyneuropathy; oral long-term therapy): appeared to deteriorate
- efficacy in pivotal placebo-controlled double-blind multicentre trials (ALADIN II, ALADIN III) (diabetic polyneuropathy; short-term use (i.v.) or long-term use (p.o.)): could not be reproduced
- result of first clinical trial (uremic neuropathy): negative results

SMILES: O=C(O)CCCC[C@@H]1CCSS1 [R-LA (K salt)]
- hyperhidrosis at the face (cryptogenic neuropathy [1]; [3]): not disappeared
- sensory perception in the lower limbs (cryptogenic neuropathy [1]; [3]): improved from severe to moderate

SMILES: O=C(O)CCCC[C@@H]1CCSS1 [R-LA (Na salt)]
- incontinence and control over the bladder (cryptogenic neuropathy [1]; Example 4, 100 mg daily oral as Na salt, after 3 weeks): improved
- chronic obstipation (cryptogenic neuropathy [1]; Example 4, 100 mg daily oral as Na salt, after 5 weeks): no longer a problem
- stool frequency (cryptogenic neuropathy [1]; Example 4, 100 mg daily oral as Na salt, after 5 weeks, 2 to 3 times a week before): 5 times a week
- dryness of the eyes (cryptogenic neuropathy [1]; Example 5, 300 mg 1 time a day for 2 weeks, then 100 mg for 6 weeks (on average taken every second day), first 3 weeks): not changed
- feeling of burning in the feet (cryptogenic neuropathy [1]; Example 5, 300 mg for 2 weeks, then 100 mg, after 3 weeks): reduced after 3 weeks (from severe to moderate)
- use of eye drops (cryptogenic neuropathy [1]; Example 5, 300 mg for 2 weeks, then 100 mg, after 4 weeks): reduced
- feeling of burning in the feet (cryptogenic neuropathy [1]; Example 5, during the weeks following week 3): unchanged

SMILES: O=C(O)CCCC[C@@H]1CCSS1 [R-LA, (R)-5-(1,2-dithiolan-3-yl)valeric acid]
- perspiration (cryptogenic neuropathy [1]; [4]): moderately improved
- sensory perception in the feet (cryptogenic neuropathy [1]; [4]): moderately improved
- feeling of burning and tingling in the feet and hands (cryptogenic neuropathy [1]; Example 2, 50 mg daily oral (s.d.) over 12 weeks): improved moderately
- symptoms after the termination of the treatment (cryptogenic neuropathy [1]; Example 2, after 12 weeks of 50 mg daily oral): became worse again
- lost sensation in the tips of the fingers and toes (Semmes Weinstein monofilament) (cryptogenic neuropathy [1]; Example 3, 50 mg in oral multivitamin preparation with γ-linolenic acid, 2 times a day, after 4 weeks): recovered
- function improvement on halving of the dose (cryptogenic neuropathy [1]; Example 3, 2 times a day for 6 weeks, then 1 time a day): not influenced
- neurological pain in the feet (cryptogenic neuropathy [1]; Example 6, 100 mg daily oral for one week, then 50 mg for 6 weeks, co-medication of gabapentin): unchanged
- perception of pain stimulus with a needle at the feet (cryptogenic neuropathy [1]; Example 6, 100 mg for one week, then 50 mg, gabapentin co-medication, after 3 weeks, not perceived at first): perceived moderately
- feeling of burning in the feet (cryptogenic neuropathy [1]; Example 7, 100 mg daily oral for two weeks, then 50 mg, after 3 weeks): improved from severe to moderate
- sharp pain which occurred occasionally (cryptogenic neuropathy [1]; Example 7, 100 mg for 2 weeks, 50 mg for 3 weeks, 25 mg for 3 weeks): unchanged
- feeling of burning in the feet (cryptogenic neuropathy [1]; Example 7, 100 mg for two weeks, then 50 mg for 3 weeks, after 5 weeks): disappeared completely
- feeling of burning in the feet (cryptogenic neuropathy [1]; Example 8, 100 mg daily oral, after 2 weeks): improved from severe to moderate
- feeling of burning in the feet (cryptogenic neuropathy [1]; Example 8, 100 mg for four weeks, then anti-oxidative multivitamin preparation with 50 mg, after 6 weeks): became worse again
- heart pains during stair climbing (cryptogenic neuropathy [1]; [5]): disappeared
- numbness (cryptogenic neuropathy [1]; [5]): unchanged
- sensory perception in the lower limbs (cryptogenic neuropathy [1]; Example 9, 50 mg daily oral, ibuprofen long-term medication, after 3 weeks, then stable): improved from severe to moderate
- sensory perception after termination of R-LA (cryptogenic neuropathy [1]; Example 9, 3 weeks after the termination of the administration): became worse again
- perception of pain stimulus at the feet by means of a sharp needle (cryptogenic neuropathy [1]; Example 10, 300 mg daily with vitamin B-combination medication, after 2 weeks): perceived again
- stomach pain and feeling of abdominal fullness (cryptogenic neuropathy [1]; Example 10, 300 mg daily with vitamin B-combination medication, at the end of four weeks): improved
- dryness at the feet (cryptogenic neuropathy [1]; Example 12, 100 mg twice a day, after 2 weeks): improved
- dryness at the hands (cryptogenic neuropathy [1]; Example 12, 100 mg twice a day, after 3 weeks): improved

SMILES: C[C@]12CCC(=O)C=C1CC[C@@H]1[C@@H]2C(=O)C[C@@]2(C)[C@H]1CC[C@]2(O)C(=O)CO [cortisone]
- outcome of therapy of cryptogenic neuropathy (cryptogenic neuropathy [2]): unsuccessful
